Literature values in patent US9414584B2, “Stabilized hypohalous acid solutions” (PURICORE, INC., priority 2011, dated 2016).
Like-named read-outs stand apart in the source and are kept apart here.

How the values were obtained:
Escherichia coli = Escherichia coli exposed to hypochlorous acid
E. coli [1] = conditions: 2.6 ppm; dilute bacterial suspensions; about 5 minutes
E. coli [2] = test system: E. coli

SMILES | time for 25 mg/mL solution to reach 20 mg/mL of free residual chlorine (20° C., Arrhenius calculation from studies at 50° C. and 70° C.) | loss of titrable chlorine (in the first 6 months) | loss of titrable chlorine (within a year) | time to lose viability (Escherichia coli) | growth inhibition of E. coli (E. coli [1]) | concentration required for 100% kill in 5 minutes (A. aerogenes) | concentration required for 100% kill in 5 minutes (S. typhosa) | concentration required for 100% kill in 5 minutes (S. dysenteriae) | concentration required for 100% kill in 5 minutes (E. coli [2])
OCl [sodium hypochlorite solution, sodium hypochlorite] | 166 days | approximately 20% | up to 60% | – | – | – | – | – | –
OCl [hypochlorous acid] | – | – | – | less than 100 ms | 100% | 0.08 ppm | 0.06 ppm | 0.05 ppm | 0.03 ppm
